The assay deals with HIV. In words: Cellular assay: anti-viral activity in HIV-infected MT4 cells (MTT cell viability). The format is cell-based. The following applies: Human immunodeficiency virus 1, 120 h, five days incubation, MTT readout, negative logarithm of EC50 (protection of 50% of cells from cytopathogenic effect). As to the method: The compounds of the present invention were examined for anti-viral activity in a cellular assay, which was performed according to the following procedure.
HIV- or mock-infected MT4 cells were incubated for five days in the presence of various concentrations of the inhibitor. At the end of the incubation period, the replicating virus in the control cultures has killed all HIV-infected cells in the absence of any inhibitor. Cell viability was determined by measuring the concentration of MTT, a yellow, water soluble tetrazolium dye that is converted to a purple, water insoluble formazan in the mitochondria of living cells only. Upon solubilization of the resulting formazan crystals with isopropanol, the absorbance of the solution was monitored at 540 nm. The values correlate directly to the number of living cells remaining in the culture at the completion of the five day incubation. The inhibitory activity of the compound was monitored on the virus-infected cells and was expressed as EC50 and EC90. These values represent the amount of the compound required to protect 50% and 90%, respectively, of the cells from the cytopathogenic effect of the virus. The toxicity of the compound was measured on the mock-infected cells and was expressed as CC50, which represents the concentration of compound required to inhibit the growth of the cells by 50%. The selectivity index (SI) (ratio CC50/EC50) is an indication of the selectivity of the anti-HIV activity of the inhibitor. Wherever results are reported as e.g. pEC50 or pCC50 values, the result is expressed as the negative logarithm of the result expressed as EC50 or CC50 respectively.
Table 2 lists the pEC50 values obtained in this test for a number of compounds of the invention.
Background: Protection from cytopathic effect is a common read-out in antiviral testing.

Molecules are shown by their SMILES.

A word on the EC50: it is the concentration needed to bring the measured effect to its halfway point. `CC(=O)c1ccc(-n2c(=O)c(C)c(C#N)c3oc4ccccc4c32)cc1` [Compound 1, 1-(4-Acetyl-phenyl)-3-methyl-2-oxo-1,2-dihydro-benzo[4,5]furo[3,2-b]pyridine-4-carbonitrile] showed an EC50 of 2510 nM.

For the compound `Cc1c(C#N)c(=O)n(-c2ccc([N+](=O)[O-])cc2)c2c1oc1cccnc12` [Compound 3, 4-Methyl-1-(4-nitrophenyl)-2-oxo-1,2-dihydro-furo[3,2-b;4,5-b′]dipyridine-3-carbonitrile], the EC50 is 1580 nM.

In turn, `COc1ccc2c(c1)oc1c(C)c(C#N)c(=O)n(-c3ccc([N+](=O)[O-])cc3)c12` [Compound 5, 7-Methoxy-4-methyl-1-(4-nitrophenyl)-2-oxo-1,2-dihydro-benzo[4,5]furo[3,2-b]-pyridine-3-carbonitrile] gave an EC50 of 398 nM.

`Cc1c(C#N)c(=O)n(-c2ccc([N+](=O)[O-])cc2)c2c1oc1cc(O)ccc12` [Compound 6, 7-Hydroxy-4-methyl-1-(4-nitrophenyl)-2-oxo-1,2-dihydro-benzo[4,5]furo[3,2-b]-pyridine-3-carbonitrile]: the EC50 is 3160 nM.
